# Measured values reported in ChEMBL document CHEMBL3286285, “A novel 2-oxoindolinylidene inhibitor of bacterial MurD ligase: Enzyme kinetics, protein-inhibitor binding by NMR and a molecular dynamics study” (Eur J Med Chem, 2014).
# The source made the active and inactive calls. The calls are words filed in the database; no cut-off is given here.
# What was measured:
# [1] = biological target: T1, UDP-N-acetylmuramoylalanine--D-glutamate ligase (Escherichia coli K-12, UniProt P14900); assay: Binding affinity to 6x His-tagged and 15N/13C-labeled Escherichia coli MurD ligase measured at NMR signal 9 by 1H/13C-HSQC 2D NMR spectroscopy
# T1 sequence (P14900 whole entry): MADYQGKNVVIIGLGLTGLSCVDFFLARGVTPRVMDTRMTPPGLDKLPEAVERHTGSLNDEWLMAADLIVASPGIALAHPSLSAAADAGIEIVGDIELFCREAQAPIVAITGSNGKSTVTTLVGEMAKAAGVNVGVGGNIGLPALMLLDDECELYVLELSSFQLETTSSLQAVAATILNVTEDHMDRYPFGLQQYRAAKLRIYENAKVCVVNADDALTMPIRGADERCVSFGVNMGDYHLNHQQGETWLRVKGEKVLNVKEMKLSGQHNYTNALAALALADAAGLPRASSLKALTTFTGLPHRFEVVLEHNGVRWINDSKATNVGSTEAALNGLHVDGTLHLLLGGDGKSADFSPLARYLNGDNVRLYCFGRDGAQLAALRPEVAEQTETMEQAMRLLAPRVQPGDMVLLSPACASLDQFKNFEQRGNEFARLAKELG
# [2] = biological target: T1, UDP-N-acetylmuramoylalanine--D-glutamate ligase; assay: Binding affinity to 6x His-tagged and 15N/13C-labeled Escherichia coli MurD ligase measured at NMR signal 56 by 1H/13C-HSQC 2D NMR spectroscopy
# [3] = biological target: T1, UDP-N-acetylmuramoylalanine--D-glutamate ligase; assay: Binding affinity to 6x His-tagged and 15N/13C-labeled Escherichia coli MurD ligase measured at NMR signal 13 by 1H/13C-HSQC 2D NMR spectroscopy
# Streptococcus pyogenes = assay: Antibacterial activity against Streptococcus pyogenes ATCC 19615 by broth microdilution method; type: functional
# Escherichia coli [4] = assay: Antibacterial activity against Escherichia coli ATCC 35218 by broth microdilution method; type: functional
# Enterococcus faecalis = assay: Antibacterial activity against Enterococcus faecalis ATCC 29212 by broth microdilution method; type: functional
# Haemophilus influenzae [5] = assay: Antibacterial activity against Haemophilus influenzae ATCC 49247 by broth microdilution method; type: functional
# [6] = biological target: T2, UDP-N-acetylmuramoylalanine--D-glutamate ligase (Escherichia coli K-12) (UniProt P14900); assay: Binding affinity to Escherichia coli MurD ligase by saturation transfer difference NMR spectroscopy
# T2 sequence (whole entry): T1 sequence (P14900 whole entry)
# [7] = biological target: T1, UDP-N-acetylmuramoylalanine--D-glutamate ligase; assay: Competitive inhibition of Escherichia coli MurD ligase activity using UDP-N-acetylmuramyl-L-alanine as a substrate
# [8] = biological target: T1, UDP-N-acetylmuramoylalanine--D-glutamate ligase; assay: Binding affinity to 6x His-tagged and 15N/13C-labeled Escherichia coli MurD ligase by 1H/13C-HSQC 2D NMR spectroscopy
# Escherichia coli [9] = assay: Antibacterial activity against Escherichia coli ATCC 25922 by broth microdilution method; type: functional
# Streptococcus pneumoniae = assay: Antibacterial activity against Streptococcus pneumoniae ATCC 49619 by broth microdilution method; type: functional
# Staphylococcus aureus = assay: Antibacterial activity against Staphylococcus aureus ATCC 25923 by broth microdilution method; type: functional
# [10] = biological target: T1, UDP-N-acetylmuramoylalanine--D-glutamate ligase; assay: Binding affinity to 6x His-tagged and 15N/13C-labeled Escherichia coli MurD ligase measured at NMR signal 71 by 1H/13C-HSQC 2D NMR spectroscopy
# [11] = biological target: T1, UDP-N-acetylmuramoylalanine--D-glutamate ligase; assay: Binding affinity to 6x His-tagged and 15N/13C-labeled Escherichia coli MurD ligase measured at NMR signal 4 by 1H/13C-HSQC 2D NMR spectroscopy
# Haemophilus influenzae [12] = assay: Antibacterial activity against Haemophilus influenzae Lek 93 by broth microdilution method; type: functional
# [13] = biological target: T1, UDP-N-acetylmuramoylalanine--D-glutamate ligase; assay: Binding affinity to 6x His-tagged and 15N/13C-labeled Escherichia coli MurD ligase measured at NMR signal 43 by 1H/13C-HSQC 2D NMR spectroscopy
# [14] = biological target: T2, UDP-N-acetylmuramoylalanine--D-glutamate ligase (Escherichia coli K-12); assay: Binding affinity to Escherichia coli MurD ligase by transferred NOESY NMR spectroscopy
# [15] = biological target: T1, UDP-N-acetylmuramoylalanine--D-glutamate ligase; assay: Binding affinity to 6x His-tagged and 15N/13C-labeled Escherichia coli MurD ligase measured at NMR signal 123 by 1H/13C-HSQC 2D NMR spectroscopy
Structure (SMILES),Kd [1],Kd [2],Kd [3],MIC (Streptococcus pyogenes),MIC (Escherichia coli [4]),MIC (Enterococcus faecalis),MIC (Haemophilus influenzae [5]),Activity [6],Ki [7],Kd [8],MIC (Escherichia coli [9]),MIC (Streptococcus pneumoniae),MIC (Staphylococcus aureus),Kd [10],Kd [11],MIC (Haemophilus influenzae [12]),Kd [13],Activity [14],Kd [15]
N#Cc1ccc(COc2ccc3cc(S(=O)(=O)N[C@H](CCC(=O)O)C(=O)O)ccc3c2)c(F)c1,2.2 µM,5.5 µM,7 µM,,,,,,,,,,,,,,,,
O=C1Nc2ccc([N+](=O)[O-])cc2/C1=C1/SC(=S)N(NC(=O)c2cccnc2)C1=O,,,,> 128 µg/mL,> 128 µg/mL,128 µg/mL,128 µg/mL,Active,115 µM,98 µM,> 128 µg/mL,> 128 µg/mL,> 128 µg/mL,106 µM,111 µM,> 128 µg/mL,79 µM,Active,
CCCCOc1ccc2cc(S(=O)(=O)N[C@H](CCC(=O)O)C(=O)O)ccc2c1,,,,,,,,,,,,,,,210 µM,,,,120 µM
